Experimental findings from US20250101041A1, “POSITIVE ALLOSTERIC MODULATORS OF THE MUSCARINIC ACETYLCHOLINE RECEPTOR M4” (Vanderbilt University, priority 2022, published 2025) are described below.

The test concerns the target T1, human mAChR M4 (Homo sapiens, UniProt P08173).
T1 construct: expressed in transfected cells; host or cells: CHO-K1 (American Type Culture Collection), stably expressing hM4 and Gqi5
T1 sequence (P08173 1-479): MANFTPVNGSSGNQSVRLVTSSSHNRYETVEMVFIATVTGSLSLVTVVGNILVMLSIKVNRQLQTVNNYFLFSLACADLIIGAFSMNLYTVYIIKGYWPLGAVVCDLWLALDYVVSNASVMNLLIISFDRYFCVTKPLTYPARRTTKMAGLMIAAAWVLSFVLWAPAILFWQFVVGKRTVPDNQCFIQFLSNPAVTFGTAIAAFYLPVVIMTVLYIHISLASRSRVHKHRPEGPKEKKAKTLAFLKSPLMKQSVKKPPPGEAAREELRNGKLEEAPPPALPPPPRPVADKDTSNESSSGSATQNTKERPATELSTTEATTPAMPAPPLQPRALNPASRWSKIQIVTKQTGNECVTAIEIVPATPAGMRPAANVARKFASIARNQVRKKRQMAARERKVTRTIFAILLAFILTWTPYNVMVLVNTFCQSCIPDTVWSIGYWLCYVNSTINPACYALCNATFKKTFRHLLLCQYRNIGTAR
Nature of the test: mAChR M4 cell-based functional assay: calcium mobilization (Fluo-4, FDSS), potentiation of EC20 acetylcholine response in hM4-Gqi5 CHO-K1 cells. The note with it: human M4; for Emax at 30 µM: CHO-K1, % ACh maximum at 30 μM; for EC50: potentiation of EC20 acetylcholine response, calcium mobilization. In outline:
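Readout is the fluorescence-ratio rise at 1 Hz on FDSS, with PAM activity taken as concentration-dependent enhancement of the EC20 acetylcholine response, fitted four-parameter for EC50/Emax. hM4-Gqi5 CHO-K1 cells carried Fluo-4 AM dye; test compounds (11 points, 1:3) preceded EC20 acetylcholine additions at 144 s and 230 s.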

One may read the Emax as the size of the effect at its maximum, as opposed to the concentration needed. One may read the EC50 as the concentration at which the effect is half-maximal. For `Cc1ccc(-c2cnc3c(c2)CN(c2nn4c(=O)c(Cl)cnc4cc2C)CC3)cn1` [Compound 1-14, 3-chloro-8-methyl-7-(3-(6-methylpyridin-3-yl)-7,8-dihydro-1,6-naphthyridin-6(5H)-yl)-4H-pyrimido[1,2-b]pyridazin-4-one], the Emax at 30 µM was 77% and the EC50 is 69 nM.
Take `Cc1cc2nccc(=O)n2nc1N1CCc2ncc(-c3cn(C)nc3C(F)(F)F)cc2C1` [Compound 1-411, 8-methyl-7-(3-(1-methyl-3-(trifluoromethyl)-1H-pyrazol-4-yl)-7,8-dihydro-1,6-naphthyridin-6(5H)-yl)-4H-pyrimido[1,2-b]pyridazin-4-one]: the Emax at 30 µM was found to be 82% and the concentration giving a half-maximal response (EC50) is 1240 nM.
With `Cc1ccc(-c2cnc3c(c2)CN(c2nn4c(=O)ccnc4c(C4CC4)c2C)CC3)cn1` [Compound 1-114, 9-cyclopropyl-8-methyl-7-(3-(6-methylpyridin-3-yl)-7,8-dihydro-1,6-naphthyridin-6(5H)-yl)-4H-pyrimido[1,2-b]pyridazin-4-one], the Emax at 30 µM was 73% and the EC50 was 615 nM.
In the case of `Cc1cc(=O)n2nc(N3CCc4ncc(-c5ccc(C)c(F)c5)cc4C3)c(C)cc2n1` [Compound 1-206, 7-(3-(3-fluoro-4-methylphenyl)-7,8-dihydro-1,6-naphthyridin-6(5H)-yl)-2,8-dimethyl-4H-pyrimido[1,2-b]pyridazin-4-one], the Emax at 30 µM was determined as 71% and the EC50 stood at 409 nM.
For `COCc1cc(=O)n2nc(N3CCc4ncc(-c5ncc(F)cc5F)cc4C3)c(C)cc2n1` [Compound 1-382, 7-(3-(3,5-difluoropyridin-2-yl)-7,8-dihydro-1,6-naphthyridin-6(5H)-yl)-2-(methoxymethyl)-8-methyl-4H-pyrimido[1,2-b] pyridazin-4-one], in that order: 79% and 467 nM.
With `Cc1cc2ncc(C3=CCCC3)c(=O)n2nc1N1CCc2ncc(C(F)(F)F)cc2C1` [Compound 1-20, 3-(Cyclopent-1-en-1-yl)-8-methyl-7-(3-(trifluoromethyl)-7,8-dihydro-1,6-naphthyridin-6(5H)-yl)-4H-pyrimido[1,2-b]pyridazin-4-one], the Emax at 30 µM was determined as 70% and the EC50 amounted to 586 nM.
Take `Cc1ccc(-c2cnc3c(c2)CN(c2nn4c(=O)ccnc4cc2C)CC3)nn1` [Compound 1-353, 8-methyl-7-(3-(6-methylpyridazin-3-yl)-7,8-dihydro-1,6-naphthyridin-6(5H)-yl)-4H-pyrimido[1,2-b] pyridazin-4-one]: the Emax at 30 µM turned out to be 55% and the EC50 was 1270 nM.
As for `Cc1cc(=O)n2nc(N3CCc4ncc(-c5ccc6nccn6c5)cc4C3)c(C)cc2n1` [Compound 1-220, 7-(3-(imidazo[1,2-a]pyridin-6-yl)-7,8-dihydro-1,6-naphthyridin-6(5H)-yl)-2,8-dimethyl-4H-pyrimido[1,2-b]pyridazin-4-one], the Emax at 30 µM came to 70% and the EC50 was found to be 747 nM.
Consider `Cc1c(N2CCc3ncc(-c4ccc(C5CC5)nc4)cc3C2)nn2c(=O)ccnc2c1C` [Compound 1-91, 7-(3-(6-Cyclopropylpyridin-3-yl)-7,8-dihydro-1,6-naphthyridin-6(5H)-yl)-8,9-dimethyl-4H-pyrimido[1,2-b]pyridazin-4-one], for which the maximal response (Emax) at 30 µM stood at 83% and the EC50 is 127 nM.
For `Cc1cc2nccc(=O)n2nc1N1CCc2ncc(Nc3c(F)ccnc3C)cc2C1` [Compound 2-114, 7-(3-((4-fluoro-2-methylpyridin-3-yl)amino)-7,8-dihydro-1,6-naphthyridin-6(5H)-yl)-8-methyl-4H-pyrimido[1,2-b]pyridazin-4-one], the maximal effect (Emax) at 30 µM is 82% and the EC50 was 165 nM.
For `Cc1c(N2CCc3ncc(-c4cnn(-c5ccccc5F)c4)cc3C2)nn2c(=O)ccnc2c1C` [Compound 1-193, 7-(3-(1-(2-fluorophenyl)-1H-pyrazol-4-yl)-7,8-dihydro-1,6-naphthyridin-6(5H)-yl)-8,9-dimethyl-4H-pyrimido[1,2-b]pyridazin-4-one], in that order: 71% and 783 nM.
Take `Cc1cc2ncc(C3CCCC3)c(=O)n2nc1N1CCc2ncc(C(F)(F)F)cc2C1` [Compound 1-23, 3-Cyclopentyl-8-methyl-7-(3-(trifluoromethyl)-7,8-dihydro-1,6-naphthyridin-6(5H)-yl)-4H-pyrimido[1,2-b]pyridazin-4-one]: the Emax at 30 µM worked out at 75% and the EC50 is 363 nM.
As to `Cc1cc2nccn2cc1-c1cnc2c(c1)CN(c1nn3c(=O)ccnc3c(C)c1C)CC2` [Compound 1-296, 8,9-dimethyl-7-(3-(7-methylimidazo[1,2-a]pyridin-6-yl)-7,8-dihydro-1,6-naphthyridin-6(5H)-yl)-4H-pyrimido[1,2-b]pyridazin-4-one], the Emax at 30 µM came out at 62% and the EC50 was found to be 563 nM.
Turning to `COCc1c(C)c(N2CCc3ncc(C(F)(F)F)cc3C2)nn2c(=O)ccnc12` [Compound 1-276, 9-(methoxymethyl)-8-methyl-7-(3-(trifluoromethyl)-7,8-dihydro-1,6-naphthyridin-6(5H)-yl)-4H-pyrimido[1,2-b]pyridazin-4-one], the Emax at 30 µM was 66%.
On to `Cc1cc2nccc(=O)n2nc1N1CCc2ncc(-c3cncn3C)cc2C1` [Compound 1-392, 8-methyl-7-(3-(1-methyl-1H-imidazol-5-yl)-7,8-dihydro-1,6-naphthyridin-6(5H)-yl)-4H-pyrimido[1,2-b] pyridazin-4-one], for which the Emax at 30 µM came to 105% and the EC50 is 259 nM.
In the case of `Cc1cc(F)ncc1-c1cnc2c(c1)CN(c1nn3c(=O)ccnc3c(C)c1C)CC2` [Compound 1-149, 7-(3-(6-Fluoro-4-methylpyridin-3-yl)-7,8-dihydro-1,6-naphthyridin-6(5H)-yl)-8,9-dimethyl-4H-pyrimido[1,2-b]pyridazin-4-one], the Emax at 30 µM stood at 89% and the EC50 was 68 nM.
In the case of `COc1cnccc1-c1cnc2c(c1)CN(c1nn3c(=O)ccnc3cc1C)CC2` [Compound 1-50, 7-(3-(3-methoxypyridin-4-yl)-7,8-dihydro-1,6-naphthyridin-6(5H)-yl)-8-methyl-4H-pyrimido[1,2-b]pyridazin-4-one], the Emax at 30 µM came to 84% and the EC50 was determined as 685 nM.
On to `Cc1cc2nccc(=O)n2nc1N1CCc2ncc(Oc3ccccc3F)cc2C1` [Compound 3-1, 7-(3-(2-fluorophenoxy)-7,8-dihydro-1,6-naphthyridin-6(5H)-yl)-8-methyl-4H-pyrimido[1,2-b]pyridazin-4-one], for which the Emax at 30 µM amounted to 75% and the EC50 came out at 40 nM.
Take `Cc1cncc(Nc2cnc3c(c2)CN(c2nn4c(=O)ccnc4cc2C)CC3)c1` [Compound 2-133, 8-methyl-7-(3-((5-methylpyridin-3-yl)amino)-7,8-dihydro-1,6-naphthyridin-6(5H)-yl)-4H-pyrimido[1,2-b]pyridazin-4-one]: the Emax at 30 µM was determined as 96% and the EC50 stood at 184 nM.
As for `Cc1ccc(-c2cnc3c(c2)CN(c2nn4c(=O)cc(C(F)F)nc4c(C)c2C)CC3)cc1` [Compound 1-169, 2-(difluoromethyl)-8,9-dimethyl-7-(3-(p-tolyl)-7,8-dihydro-1,6-naphthyridin-6(5H)-yl)-4H-pyrimido[1,2-b]pyridazin-4-one], the Emax at 30 µM was found to be 89% and the EC50 came to 883 nM.
With `Cc1cc2nccc(=O)n2nc1N1CCc2ncc(-c3cc(C#N)n(C)c3C)cc2C1` [Compound 1-423, 1,5-dimethyl-4-(6-(8-methyl-4-oxo-4H-pyrimido[1,2-b]pyridazin-7-yl)-5,6,7,8-tetrahydro-1,6-naphthyridin-3-yl)-1H-pyrrole-2-carbonitrile], the Emax at 30 µM was 79% and the EC50 was found to be 1190 nM.
In the case of `Cc1cc2ncc(-c3ccccc3)c(=O)n2nc1N1CCc2ncc(C(F)(F)F)cc2C1` [Compound 1-21, 8-methyl-3-phenyl-7-(3-(trifluoromethyl)-7,8-dihydro-1,6-naphthyridin-6(5H)-yl)-4H-pyrimido[1,2-b]pyridazin-4-one], the Emax at 30 µM came to 75% and the EC50 stood at 136 nM.
Turning to `Cc1cc2nccc(=O)n2nc1N1CCc2ncc(-c3cccc4ncccc34)cc2C1` [Compound 1-41, 8-methyl-7-(3-(quinolin-5-yl)-7,8-dihydro-1,6-naphthyridin-6(5H)-yl)-4H-pyrimido[1,2-b]pyridazin-4-one], the Emax at 30 µM was determined as 83% and the EC50 came to 430 nM.
For `Cc1cc(C)c(-c2cnc3c(c2)CN(c2nn4c(=O)ccnc4cc2C)CC3)cn1` [Compound 1-405, 7-(3-(4,6-dimethylpyridin-3-yl)-7,8-dihydro-1,6-naphthyridin-6(5H)-yl)-8-methyl-4H-pyrimido [1,2-b]pyridazin-4-one], the Emax at 30 µM amounted to 61% and the EC50 was 259 nM.
Turning to `Cc1cc(=O)n2nc(N3CCc4ncc(-c5cnc(C)s5)cc4C3)c(C)cc2n1` [Compound 1-31, 2,8-dimethyl-7-(3-(2-methylthiazol-5-yl)-7,8-dihydro-1,6-naphthyridin-6(5H)-yl)-4H-pyrimido[1,2-b]pyridazin-4-one], the maximal effect (Emax) at 30 µM was determined as 83% and the EC50 stood at 104 nM.
